# From US20100323434A1, “Compartmentalized Nerve Culture System” (priority 2009, published 2010)
# What was measured:
# [1] = system: Primary hippocampal neurons; test: Oxidative stress by H2O2 added selectively to the somal compartment of the microfluidic device; type: cell-based; settings: added to somal compartment of one group of neuronal cell bodies (2 mM peroxide media); over the course of 24-72 h
# [2] = system: Dorsal root ganglia (DRG) neuronal cultures; type: cell-based, rats; settings: rat, 24 h, 25 ng/mL
# From the text: A two-step photolithographic process was utilized to create the master mold. Silicon wafers (University Wafer, MA) were coated with SU-8 2002 (Microchem; MA), spun, and soft baked using parameters specified by the manufacturer to yield a resist thickness of 2.5 microns. An array of microchannels, each with dimensions: width=10 microns, length=500 microns, were defined by UV light exposure through a high resolution DPI transparency (Cad/Art, OR). The exposed substrate was once again baked, to enhance polymer cross-linking post exposure, and developed as stated in the resist technical sheet to fully define the microchannels. […]
# In order to identify the susceptibility of axons and cell bodies to paclitaxel, we added 25 ng/mL of paclitaxel to either axon or cell body chambers and continued to culture the DRGs for another 24 hours. Once images of the fluorescently labeled cells and axons were captured, we used ImageJ to calculate axon lengths and calculated percent change in axon length compared to 24 hours before taxol exposure.
# Studies on the neuroprotective effect of EPO were performed with concurrent administration of paclitaxel, which was applied to either the neuronal cell body or axonal side. […] Axon degeneration was defined as the change in axon length over the total axon length expressed as a percentage.
decrease in the length of axons [2] [%],SMILES,neuronal cell death and axonal degeneration [1]
,OO [H2O2],induction of neuronal cell death and accompanying axonal degeneration
28.6 ± 11.2,"CC(=O)O[C@H]1C(=O)[C@@]2(C)[C@H]([C@H](OC(=O)c3ccccc3)[C@]3(O)C[C@H](OC(=O)[C@H](O)[C@@H](NC(=O)c4ccccc4)c4ccccc4)C(C)=C1C3(C)C)[C@]1(OC(C)=O)CO[C@@H]1C[C@@H]2O [paclitaxel, Paclitaxel, reference compound]",
